# Measurements reported in patent publication US20220233555A1, “Improved administration of glycylcyclines by inhalation” (Stichting Radboud universitair medisch centrum, priority 2019, published 2022).
# Assays:
# [1] = in vivo; cited from earlier work
# [2] = tested on: M. abscessus and M. chelonae infections; settings: cited from earlier work
# [3] = rat, in vivo; cited from earlier work
# [4] = in vivo, cited from earlier work
# [5] = tested on: M. abscessus; settings: cited from earlier work
# [6] = cited from earlier work
# [7] = tested on: M. abscessus; assay: Intrapulmonary aerosol M. abscessus infection in GM-CSF KO mice, lung CFU determination; type: in vivo, Mycobacterium abscessus; settings: for Log10 CFU count After 4 weeks: GM-CSF KO mice, lungs, 5 days a week for 4 weeks, at start 4.80, untreated 3.93
smiles,measurement,setting,value
CN(C)c1cc(NC(=O)CNC(C)(C)C)c(O)c2c1C[C@H]1C[C@H]3[C@H](N(C)C)C(O)=C(C(N)=O)C(=O)[C@@]3(O)C(O)=C1C2=O [tigecycline],dose at which gastrointestinal adverse events were dose limiting,[1],300 mg
same,"nausea, share of tigecycline recipients",[1],48.5%
same,"vomiting, share of tigecycline recipients",[1],29.4%
same,cases with adverse events reported,"[2]; human, in vivo, iv",about 90%
same,patients with serious adverse events,"[2]; human, in vivo, iv",29 out of 52
same,patients who stopped tigecycline therapy early because of adverse events,"[2]; human, in vivo",27%
same,patients with improvement,"[2]; intravenous 100 mg then 50 mg every 12 h, part of a multidrug regimen",about 60%
same,penetration into tissues,[3],good penetration into tissues
same,half-life,[4]; human,36 h
same,excreted unchanged in the urine,[4],not more than 15%
same,volume of distribution,[4],> 10 L/kg
same,log kill of M. abscessus,"[5]; at 200 mg/day, short-term inhibitory effect",1 log kill
same,maximum microbial kill,[5]; at higher doses,1.37 log10 CFU/mL
same,Protein binding,[6],approximately 68%
same,bacterial colonies after culturing lung tissue,"[7]; 2.5 mg cohorts, 9 out of 10 mice, 4 weeks",no bacterial colonies were visible
same,log 10 CFU count of the mouse with incomplete response,"[7]; 2.5 mg cohorts, one mouse with abscess formation, 4 weeks",0.5 log 10 CFU
same,Log10 CFU count After 4 weeks,[7]; inhaled 0.25 mg/dose,3.28 Log10 CFU
same,Log10 CFU count After 4 weeks,[7]; inhaled 1.25 mg/dose,0.695 Log10 CFU
same,Log10 CFU count After 4 weeks,[7]; inhaled 2.5 mg/dose,0.50 Log10 CFU
